# Reference: patent US10112941B2, “Tricyclic compounds as anticancer agents” (BRISTOL-MYERS SQUIBB COMPANY, priority 2013, dated 2018)
# Target: BRD4 (Homo sapiens, UniProt O60885)
# Assay: Time Resolved Fluorescence Resonance Energy Transfer (TR-FRET) binding assay, BRD4
# Settings: FRET BRD4 IC50 (nM), one of the FRET assays described
row,Structure (SMILES),IC50
1,"Cn1nnc(Cl)c1-c1cnc2c3ccc(C(C)(C)O)cc3n([C@H](c3ccccc3)C3CCOCC3)c2c1 [Example 387, 2-[3-(4-Chloro-1-methyl-1H-1,2,3-triazol-5-yl)-5-[(S)-oxan-4-yl(phenyl)methyl]-5H-pyrido[3,2-b]indol-7-yl]propan-2-ol]",< 5 nM

# Same assay, conditions: one of the FRET assays described; read-out: FRET BRD4 IC50
row,Structure (SMILES),IC50
1,Cc1noc(C)c1-c1cnc2c3ccc(C(C)(C)O)cc3n([C@@H](CCC(F)(F)F)c3ccccc3)c2c1 [Example 9],< 5 nM
2,"[2H][C@@](c1ccccc1F)(C1CCOCC1)n1c2cc(C(C)(C)O)ccc2c2ncc(-c3c(C)nnn3C)cc21 [Example 92, 2-[3-(Dimethyl-1H-1,2,3-triazol-5-yl)-5-[(S)-oxan-4-yl(2-fluorophenyl)(^2H)methyl]-5H-pyrido[3,2-b]indol-7-yl]propan-2-ol]",< 5 nM
3,"Cc1nnn(C)c1-c1cnc2c3ccc(S(C)(=O)=O)cc3n([C@H](c3ccccc3)C3CCOCC3)c2c1 [Example 177, 5-{7-Methanesulfonyl-5-[(S)-oxan-4-yl(phenyl)methyl]-5H-pyrido[3,2-b]indol-3-yl}-1,4-dimethyl-1H-1,2,3-triazole]",< 5 nM
4,"Cc1nnn(C)c1-c1cnc2c3c(S(C)(=O)=O)cc(F)c(F)c3n([C@H](c3ccccc3)C3CCOCC3)c2c1 [Example 160, 5-{6,7-Difluoro-9-methanesulfonyl-5-[(S)-oxan-4-yl(phenyl)methyl]-5H-pyrido[3,2-b]indol-3-yl}-1,4-dimethyl-1H-1,2,3-triazole]",< 5 nM
5,COc1cnccc1C(C1CCOCC1)n1c2cc(C(C)(C)O)ccc2c2ncc(-c3c(C)nnn3C)cc21 (centres unmarked) [Example 291],< 5 nM
6,Cc1nnn(C)c1-c1cnc2c3ccc(CS(C)(=O)=O)cc3n([C@H](c3cc(Cl)ccn3)C3CCOCC3)c2c1 [Example 335],< 5 nM
7,"[2H]C([2H])([2H])c1nnn(C)c1-c1cnc2c3ccc(C(C)(C)O)c(F)c3n(C(c3ccc(F)cn3)C3CCOCC3)c2c1 (single isomer, unassigned) [Example 323]",< 25 nM
8,"Cc1noc(C)c1-c1cnc2c3c(C(C)(C)O)cccc3n(Cc3ccccc3)c2c1 [Example 53, 2-[5-Benzyl-3-(dimethyl-1,2-oxazol-4-yl)-5H-pyrido[3,2-b]indol-9-yl]propan-2-ol]",< 1500 nM
9,"COc1nnn(C)c1-c1cnc2c3ccc(S(C)(=O)=O)cc3n([C@H](c3ccccc3)C3CCOCC3)c2c1 [Example 391, 5-{7-Methanesulfonyl-5-[(S)-oxan-4-yl(phenyl)methyl]-5H-pyrido[3,2-b]indol-3-yl}-4-methoxy-1-methyl-1H-1,2,3-triazole]",< 5 nM
10,"[2H]C([2H])([2H])c1nnn(C)c1-c1cnc2c3cc(F)c(C(C)(O)C4CC4)cc3n([C@H](c3ccccc3)C3CCOCC3)c2c1 (stereo partly drawn) [Example 446, 1-Cyclopropyl-1-{8-fluoro-3-[4-(^2H3)methyl-1-methyl-1H-1,2,3-triazol-5-yl]-5-[(S)-oxan-4-yl(phenyl)methyl]-5H-pyrido[3,2-b]indol-7-yl}ethan-1-ol]",< 5 nM
11,"Cc1nnn(C)c1-c1cnc2c3ccc(C(C)(C)O)cc3n(C(c3ccccc3Cl)C3CCOCC3)c2c1 (single isomer, unassigned) [Example 402]",< 5 nM
12,"Cc1cc(C(C2CCOCC2)n2c3cc(C(C)(C)O)ccc3c3ncc(-c4c(C)nnn4C)cc32)no1 (single isomer, unassigned) [Example 287, 2-[3-(Dimethyl-1H-1,2,3-triazol-5-yl)-5-[(5-methyl-1,2-oxazol-3-yl)(oxan-4-yl)methyl]-5H-pyrido[3,2-b]indol-7-yl]propan-2-ol]",< 25 nM
13,"Cc1nnn(C)c1-c1cnc2c3ccc(CO)cc3n([C@H](c3ccccc3)C3CCOCC3)c2c1 [Example 405, [3-(Dimethyl-1H-1,2,3-triazol-5-yl)-5-[(S)-oxan-4-yl(phenyl)methyl]-5H-pyrido[3,2-b]indol-7-yl]methanol]",< 5 nM
14,"[2H]C([2H])([2H])c1nnn(C)c1-c1cnc2c3ccc(C(C)(C)O)cc3n(C(c3ncccc3C(F)(F)F)C3CCOCC3)c2c1 (single isomer, unassigned) [Example 319]",< 5 nM
15,"Cc1noc(C)c1-c1cnc2c3ccc(C(C)(C)O)cc3n(C(c3cccc(F)c3)C3CCOCC3)c2c1 (single isomer, unassigned) [Example 148, 2-[3-(Dimethyl-1,2-oxazol-4-yl)-5-[(3-fluorophenyl)(oxan-4-yl)methyl]-5H-pyrido[3,2-b]indol-7-yl]propan-2-ol]",< 25 nM
16,Cc1nnn(C)c1-c1cnc2c3ccc(C(C)(C)O)cc3n([C@@H](c3ccccc3F)C3CCOCC3)c2c1 [Example 65],< 5 nM
17,"CC(=O)c1ccc2c3ncc(-c4c(C)nnn4C)cc3n([C@H](c3ccccc3)C3CCOCC3)c2c1 [Example 421, 1-[3-(Dimethyl-1H-1,2,3-triazol-5-yl)-5-[(S)-oxan-4-yl(phenyl)methyl]-5H-pyrido[3,2-b]indol-7-yl]ethan-1-one]",< 5 nM
18,Cc1nnn(C)c1-c1cnc2c3c(NS(=O)(=O)C4CC4)ccc(S(C)(=O)=O)c3n([C@H](c3ccccc3)C3CCOCC3)c2c1 [Example 218],< 5 nM
19,"COC(=O)NC(C)(C)c1ccc2c3ncc(-c4c(C)nnn4C)cc3n([C@H](c3ccccc3)C3CCOCC3)c2c1F [Example 464, Methyl N-{2-[3-(dimethyl-1H-1,2,3-triazol-5-yl)-6-fluoro-5-[(S)-oxan-4-yl(phenyl)methyl]-5H-pyrido[3,2-b]indol-7-yl]propan-2-yl}carbamate]",< 5 nM
20,"Cc1noc(C)c1-c1cnc2c3ccc(C(C)(C)O)cc3n(C(c3ccccc3)C3CCOCC3)c2c1 (single isomer, unassigned) [Example 2, 2-[3-(Dimethyl-1,2-oxazol-4-yl)-5-[oxan-4-yl(phenyl)methyl]-5H-pyrido[3,2-b]indol-7-yl]propan-2-ol]",< 5 nM
21,"Cc1noc(C)c1-c1cnc2c3ccc(C(C)(C)O)cc3n(C(c3ncccc3F)C3CCOCC3)c2c1 (single isomer, unassigned) [Example 345, 2-[3-(Dimethyl-1,2-oxazol-4-yl)-5-[(3-fluoropyridin-2-yl)(oxan-4-yl)methyl]-5H-pyrido[3,2-b]indol-7-yl]propan-2-ol]",< 5 nM
22,"Cc1noc(C)c1-c1cnc2c3ccc(C(C)(C)O)cc3n(C(c3ccccc3)c3cscn3)c2c1 (single isomer, unassigned) [Example 29, 2-[3-(Dimethyl-1,2-oxazol-4-yl)-5-[phenyl(1,3-thiazol-4-yl)methyl]-5H-pyrido[3,2-b]indol-7-yl]propan-2-ol]",< 5 nM
23,"[2H]C([2H])([2H])c1nnn(C)c1-c1cnc2c3c(OCC(F)F)ccc(S(C)(=O)=O)c3n([C@H](c3ccccc3)C3CCOCC3)c2c1 [Example 229, 5-[9-(2,2-Difluoroethoxy)-6-methanesulfonyl-5-[(S)-oxan-4-yl(phenyl)methyl]-5H-pyrido[3,2-b]indol-3-yl]-4-(^2H3)methyl-1-methyl-1H-1,2,3-triazole]",< 5 nM
24,"Cc1noc(C)c1-c1cnc2c3ccc(C(C)(C)O)cc3n(C(CCC(F)(F)F)c3cocn3)c2c1 (single isomer, unassigned) [Example 34, 2-[3-(Dimethyl-1,2-oxazol-4-yl)-5-[4,4,4-trifluoro-1-(1,3-oxazol-4-yl)butyl]-5H-pyrido[3,2-b]indol-7-yl]propan-2-ol]",< 5 nM
25,Cc1noc(C)c1-c1cnc2c3ccc(C(C)(C)O)cc3n([C@@H](c3ccc(F)cc3)C3CCC3)c2c1 [Example 16],< 25 nM
